Laboratory results published in patent US12226383B1, “Compositions containing short-chain fatty acid, methods of use, and methods of making thereof” (Velocity Life Sciences, LLC, priority 2024, dated 2025).

Columns and labels:
[1] = Exposure of powder sample at room temperature to air (hygroscopicity, storage stability); assay type: physicochemical; conditions: for State of powder after exposure to air: exposed to air
Source text: The L-arginine butyrate prepared using ethanol as the sole solvent was a white to off-white powder.
The L-lysine butyrate prepared using ethanol as the sole solvent was a light, pale yellow to yellow powder.

[2] = Study to assess nootropic and related properties after oral administration; assay type: in vivo, human
Method: In another experiment, L-lysine butyrate in a dose range of 500 mg to 5,000 mg was administered as an aqueous solution to six individuals aged between 22 and 55 years, comprising two women and four men. […] The observed effects were dose-dependent, with larger doses of L-lysine butyrate providing greater effects and longer duration, lasting up to four hours.
In another experiment, L-lysine butyrate in a dose of 2 g, and on a separate occasion 5 g, was administered in encapsulated form, to 2 individuals. A further individual was administered L-lysine butyrate in a dose of 2 g in encapsuled form.

[3] = seven (7) days, room temperature

Substance | Hygroscopicity [1] | State of powder after exposure to air ([1]; 24 hours, room temperature) | State of powder after exposure to air [1, 3] | Storage stability of the solid ([1]; room temperature) | State of powder after exposure to air ([1]; thirty (30) days, room temperature) | Time to reported effects after administration ([2]; 500 mg to 5,000 mg as aqueous solution, six individuals) | Effects reported by participants ([2]; 500 mg to 5,000 mg as aqueous solution, six individuals, dose-dependent) | Duration of effects ([2]; 500 mg to 5,000 mg as aqueous solution, larger doses longer duration) | Analgesic effect ([2]; oral administration, 2 g encapsulated, two of the individuals) | Mental effects ([2]; single oral administration of 2 g, encapsulated form) | Mental effects (undesirable) ([2]; single oral administration of 5 g, encapsulated form) | Calming effect in a baby ([2]; small dosage of 25 mg or 50 mg)
L-arginine butyrate [reference compound] | quite hygroscopic | formed hard, rock-like clumps | significantly hydrated into, large solid masses | – | – | – | – | – | – | – | – | –
L-lysine butyrate | not hygroscopic | remained a fine, free-flowing yellow powder | remained a fine, free-flowing powder with no color change | stable to storage at room temperature | remained a fine, free-flowing powder | thirty | more relaxed, less tired, more sociable, and able to concentrate on tasks more effectively | up to four | eliminating minor-to-moderate pain and discomfort | pleasant mental effects | undesirable mental effects | effective to calm a baby
